Literature values, collected in patent publication US9561272B2, “Compositions and methods for modulating immune responses” (The University of Queensland, priority 2006, dated 2017).

system: NF-κB; settings: Table 3, miscellaneous inhibitors of NF-κB; step of NF-κB function inhibited, per the cited reference; cited from earlier work

| Compound | Effect or point of inhibition |
| --- | --- |
| CC(/C=C/C(=O)NO)=C\[C@@H](C)C(=O)c1ccc(N(C)C)cc1 [Trichostatin A] | RelA DNA binding |
| c1cc2c(cc1[C@H]1OC[C@H]3[C@@H]1CO[C@@H]3c1ccc3c(c1)OCO3)OCO2 [Sesamin (from sesame oil)] | DNA binding |
| CS(=O)(=O)Nc1cc2occ(NC=O)c(=O)c2cc1Oc1ccccc1 | DNA binding |
| Artemisolide | Transactivation |
| C[C@H]1[C@H](C)CC[C@]2(C(=O)O)CC[C@]3(C)C(=CC[C@@H]4[C@@]5(C)CC[C@H](O)C(C)(C)[C@@H]5CC[C@]43C)[C@H]12 [Ursolic acid] | DNA binding |
| COC1=C[C@@H]2[C@@H]3Cc4ccc(OC)c(O)c4[C@]2(CCN3C)CC1=O [Sinomenine] | DNA binding |
| O=C1NC(=O)C(Cc2ccc3cc(OCc4ccccc4F)ccc3c2)S1 (stereo not shown) [Thiazolidinedione MCC-555] | DNA binding |
| O=C(O)c1cc(/N=N/c2ccc(S(=O)(=O)Nc3ccccn3)cc2)ccc1O [Sulfasalazine] | DNA binding |
| COc1cc(O)c(CC=C(C)C)c(O)c1C(=O)/C=C/c1ccc(O)cc1 [Xanthohumol (a hops prenylflavonoid)] | DNA binding |
| COc1ccc(C(C)=O)c(O)c1 [Paeonol (from Mountain Cortx)] | Transactivation |
| S=C=NCCc1ccccc1 [Phenethylisothiocyanate] | Transactivation |
| O=c1cc(N2CCOCC2)oc2c(-c3ccccc3)cccc12 [LY294,002] | Transactivation |
| O=C(C=Cc1ccc(O)cc1)NCCc1c[nH]c2ccc(O)cc12 | DNA binding |
| CC1(C)C[C@@H]1C(=O)Nc1ccc(Oc2ccc(NC(=O)[C@H]3CC3(C)C)cn2)cc1 [APC0576] | Transactivation |
| COc1ccc(C=CC(=O)Nc2ccccc2C(=O)O)cc1OC | Transactivation |
| Cn1cc(C2=C(c3cn(CCCSC(=N)N)c4ccccc34)C(=O)NC2=O)c2ccccc21 [RO31-8220 (PKC inhibitor)] | Transactivation |
| S=C([S-])OC1CC2CC1C1CCCC21.[K+] (stereo not shown) | Transactivation |
| C[C@H]1CCC[C@H](O)CCC/C=C/c2cc(O)cc(O)c2C(=O)O1 [Alpha-zearalenol] | Transactivation |
| COC[C@H]1OC(=O)c2coc3c2[C@@]1(C)C1=C(C3=O)[C@@H]2CCC(=O)[C@@]2(C)C[C@H]1OC(C)=O [Wortmannin (fungal metabolite)] | Transactivation |
| [SH-].[SH-].[S]=[Mo]=[S] [Tetrathiomolybdate] | Transactivation |

| Compound | Effect or point of inhibition |
| --- | --- |
| N#CC(C#N)=Cc1ccc([N+](=O)[O-])c(O)c1 [Tyrphostin AG-126] | DNA binding |
| Cc1nc(C)c(C)nc1C [Tetramethylpyrazine] | DNA binding |
| CCCCC/C=C\C/C=C\CCCCCCCC(=O)OCC(COC(=O)CCCCCCC/C=C\C/C=C\CCCCC)OC(=O)CCCCCCC/C=C\C/C=C\CCCCC [Trilinolein] | Transactivation |
| COc1cc(/C=C/C(=O)c2ccc(F)cc2)cc(OC)c1OC [3,4,5-trimethoxy-4′-fluorochalcone] | Transactivation |
| COc1ccc(-c2cc(=O)c3c(OC)c(OC)c(OC)c(OC)c3o2)cc1OC [Nobiletin] | Transactivation |
| COc1c(O)cc(O)c2c(=O)cc(-c3ccccc3)oc12 [Wogonin (5,7-dihydroxy-8-methoxyflavone)] | DNA binding |
| O=c1cc(-c2ccc(O)c(O)c2)oc2cc(O)cc(O)c12 [Luteolin] | p65 Transactivation |
| Tom1 (target of Myb-1) overexpression | DNA binding |
| CC(=O)OC(CC=C(C)C)C(C)=CC(O)CC(C)=CCOc1ccc2ccc(=O)oc2c1 (stereo not shown) | Transactivation |
| Siva-1 | DNA binding |
| CC(C)[C@]12O[C@H]1[C@@H]1O[C@]13[C@]1(O[C@H]1C[C@H]1C4=C(CC[C@@]13C)C(=O)OC4)[C@@H]2O | DNA binding |
| C[n+]1c2n(c(=O)c3ccccc31)CCc1c-2[nH]c2ccccc12 [Dehydroevodiamine] | Transactivation |
| CC1=C(CO)C(=O)O[C@@H]([C@@H](C)[C@H]2CC[C@H]3[C@@H]4C[C@H]5O[C@]56[C@@H](O)C=CC(=O)[C@]6(C)[C@H]4CC[C@]23C)C1 [Withaferin A] | DNA binding |
| CCOC(=O)c1cnc(NC2=C(C)C(=O)NC2=O)nc1C(F)(F)F | Transactivation |
| O=C(Nc1ncc([N+](=O)[O-])s1)c1ccc([N+](=O)[O-])c(Cl)c1 [SM-7368 (small molecule)] | DNA binding |
| N[C@@H](Cc1c[nH]cn1)C(=O)O [Histidine] | Transactivation |
| OC[C@@H](O)[C@H](O)[C@@H](O)CO [Xylitol] | DNA binding |
| C=CCNC1=C2C[C@@H](C)C[C@H](OC)[C@H](O)[C@@H](C)/C=C(\C)[C@H](OC(N)=O)[C@@H](OC)/C=C\C=C(/C)C(=O)NC(=CC1=O)C2=O [17-allylamino-17-demethoxygeldanamycin] | Transactivation |
| CCCCCCCCCCCCC/C=C/[C@@H](O)[C@@H](N)CO[C@@H]1O[C@H](CO)[C@H](O)[C@H](O)[C@H]1O [Psychosine] | Transactivation |
| COc1cc([C@@H]2c3cc4c(c(OC)c3[C@H](O)[C@H]3COC(=O)[C@H]23)OCO4)cc(OC)c1O | Transactivation |

same assay, conditions: cited from earlier work

| Compound | Effect or point of inhibition |
| --- | --- |
| N[C@@H](CCC(=O)N[C@@H](CSN=O)C(=O)NCC(=O)O)C(=O)O [Nitrosoglutathione] | DNA binding |
| C[S+]([O-])c1ccc(-c2nc(-c3ccc(F)cc3)c(-c3ccncc3)[nH]2)cc1 (stereo not shown) [SB203580 (p38 MAPK inhibitor)] | Transactivation |
| mercury | DNA binding |
| C=C(C)[C@@H]1CC[C@]2(C(=O)O[C@@H]3O[C@H](CO[C@@H]4O[C@H](CO)[C@@H](O[C@@H]5O[C@@H](C)[C@H](O)[C@@H](O)[C@H]5O)[C@H](O)[C@H]4O)[C@@H](O)[C@H](O)[C@H]3O)CC[C@]3(C)[C@H](C[C@H]4OC(=O)C[C@@H](O)[C@]5(C)[C@@H]4[C@@]3(C)CC[C@H]5C(=C)C)[C@@H]12 [Chiisanoside] | RelA Nuclear translocation |
| Oc1ccc(O)cc1 [Hydroquinone (HQ)] | DNA binding |
| CCCCCCCCCCCCCC(=O)OCC/C(SS/C(CCOC(=O)CCCCCCCCCCCCC)=C(\C)N(C=O)Cc1cnc(C)nc1N)=C(/C)N(C=O)Cc1cnc(C)nc1N | Nuclear translocation |
